This assay deals with T1, PRKCQ (PKC theta) (Homo sapiens, UniProt Q04759).
T1 construct: purchased Thermo Fisher Scientific (Life Technologies) SelectScreen
Put plainly: SelectScreen Z'LYTE. Format: biochemical. The procedure, abridged: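 SelectScreen broad panel; activity (Z'LYTE, Adapta) plus binding formats. ATP: Km app for CSF1R Z'LYTE; 10 for CAMK1 Adapta. Readout = % per kinase.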

The structures appear in SMILES notation.

T1 sequence (Q04759 whole entry): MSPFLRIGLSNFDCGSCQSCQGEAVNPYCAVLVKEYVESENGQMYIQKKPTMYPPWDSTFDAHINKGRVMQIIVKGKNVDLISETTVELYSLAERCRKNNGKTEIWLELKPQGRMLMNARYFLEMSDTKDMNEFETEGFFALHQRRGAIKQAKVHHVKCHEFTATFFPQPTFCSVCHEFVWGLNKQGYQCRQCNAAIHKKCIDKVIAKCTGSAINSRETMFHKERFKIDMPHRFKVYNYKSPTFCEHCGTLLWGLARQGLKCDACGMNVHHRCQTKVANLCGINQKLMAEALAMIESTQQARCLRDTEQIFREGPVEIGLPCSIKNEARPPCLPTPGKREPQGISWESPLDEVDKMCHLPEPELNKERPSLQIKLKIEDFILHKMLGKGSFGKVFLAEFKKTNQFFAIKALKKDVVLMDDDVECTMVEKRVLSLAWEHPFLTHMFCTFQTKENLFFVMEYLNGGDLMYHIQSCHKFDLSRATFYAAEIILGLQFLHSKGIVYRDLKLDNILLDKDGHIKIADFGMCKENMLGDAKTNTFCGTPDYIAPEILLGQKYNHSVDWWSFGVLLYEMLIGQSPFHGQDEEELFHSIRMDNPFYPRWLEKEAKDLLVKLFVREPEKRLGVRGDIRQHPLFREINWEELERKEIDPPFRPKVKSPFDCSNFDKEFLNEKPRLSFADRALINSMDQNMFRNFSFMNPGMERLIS

A word on the inhibition: it is the relative decrease from the control value, in per cent. `CN(C(=O)CN1CCOCC1)c1ccc2sc3c(-c4cccc5c(=O)cc(N6CC7CCC(C6)O7)oc45)cccc3c2c1` [NU5455]: the inhibition at 1 µM was -3.7%.
